# Reference: ChEMBL document CHEMBL2429815, “Synthesis of 5-benzyl-4-aryl-octahydro-1H-benzo[b][1,5]diazepin-2-ones as potent antidepressant and antimicrobial agents” (Med Chem Res, 2013)
# Tests used:
# Bacillus subtilis = test: Antibacterial activity against Bacillus subtilis ATCC […] assessed as growth inhibition at 10 ug/ml by disc diffusion method; assay type: functional; conditions: read-out: IZ
# Rattus norvegicus [1] = test: Neurotoxicity in rat assessed as minimal motor impairment by measuring coordination time at 100 mg/kg, ip 30 mins prior to testing by rotarod method; assay type: toxicity, organism-based; set-up: dose 100 mg/kg, route intraperitoneal; conditions: in vivo, 0.5 h
# Pseudomonas aeruginosa = test: Antibacterial activity against Pseudomonas aeruginosa ATCC 9027 assessed as growth inhibition at 10 ug/ml by disc diffusion method; assay type: functional; conditions: read-out: IZ
# Escherichia coli = test: Antibacterial activity against Escherichia coli ATCC 35218 assessed as growth inhibition at 10 ug/ml by disc diffusion method; assay type: functional; conditions: read-out: IZ
# Rattus norvegicus [2] = test: Antidepressant activity in Albino rat assessed as reduction in immobility duration at 20 mg/kg, ip measured during 5 mins by forced swim test relative to control; assay type: functional; set-up: scale not given: the % may be the effect or the level left; conditions: route intraperitoneal
# Staphylococcus aureus = test: Antibacterial activity against Staphylococcus aureus ATCC 6538 assessed as growth inhibition at 10 ug/ml by disc diffusion method; assay type: functional; conditions: read-out: IZ
SMILES,zone of inhibition at 10 µg/mL (Bacillus subtilis) [mm],Time (Rattus norvegicus [1]) [s],zone of inhibition at 10 µg/mL (Pseudomonas aeruginosa) [mm],zone of inhibition at 10 µg/mL (Escherichia coli) [mm],Activity (Rattus norvegicus [2]) [%],zone of inhibition at 10 µg/mL (Staphylococcus aureus) [mm]
COc1ccc(C2CC(=O)NC3CCCCC3N2Cc2ccccc2)cc1 (configuration not stated),3,97.83,7,5,86.4,12
O=C(O)c1cn(C2CC2)c2cc(N3CCNCC3)c(F)cc2c1=O [CIPROFLOXACIN],9,,12,9,,18
O=C1CC(c2ccc(Br)cc2)N(Cc2ccccc2)C2CCCCC2N1 (configuration not stated),5,93.67,8,5,85.82,10
O=C1CC(c2ccc([N+](=O)[O-])cc2)N(Cc2ccccc2)C2CCCCC2N1 (configuration not stated),6,93.5,9,4,89.44,15
O=C1CC(c2ccccc2Br)N(Cc2ccccc2)C2CCCCC2N1 (configuration not stated),6,91.33,5,6,71.1,15
O=C1CC(c2cc3ccccc3nc2Cl)N(Cc2ccccc2)C2CCCCC2N1 (configuration not stated),6,98.33,6,6,85.27,13
O=C1CC(c2coc3ccccc3c2=O)N(Cc2ccccc2)C2CCCCC2N1 (configuration not stated),4,97.17,5,5,83.56,8
COc1ccc(C2CC(=O)NC3CCCCC3N2Cc2ccccc2)cc1OC (configuration not stated),7,96.5,5,8,89.03,7
O=C1CC(c2cccc([N+](=O)[O-])c2)N(Cc2ccccc2)C2CCCCC2N1 (configuration not stated),3,92.34,7,4,85.82,10
CN(C)CCCN1c2ccccc2CCc2ccc(Cl)cc21 [CLOMIPRAMINE],,110.83,,,92.21,
O=C1CC(c2ccccc2)N(Cc2ccccc2)C2CCCCC2N1 (configuration not stated),6,100.33,6,5,81.56,9
O=C1CC(c2ccccc2Cl)N(Cc2ccccc2)C2CCCCC2N1 (configuration not stated),4,95.17,9,4,78.23,8
O=C1CC(c2ccc(Cl)cc2)N(Cc2ccccc2)C2CCCCC2N1 (configuration not stated),3,90.83,4,3,88.03,10
